The results in this text go back to US5070089A, “Therapeutic agent for liver disease and piperazine derivatives” (Nippon Chemiphar Co., Ltd., priority 1988, dated 1991).

Where two headings read alike, the source gives them in different places.

Assay [1] relates to acute liver disease caused by CCl4 (Wister-strain rat). Put plainly: Preventive action on deviation of GOT value and GPT value in vivo using model of acute liver disease caused by CCl4. To be noted: rat, 30 mg/kg, 3 hour before oral CCl4. As to the method: CCl4 in olive oil (concentration: 50%) was orally administered to a Wister-strain rat (body weight: 170-180 g) fasted for 24 hrs., at a dose of 1 ml/kg, to cause acute liver disease. […] For control group, 1.0% methylcellulose (MC) was administered in place of the piperazine derivative. For normal group, a simple olive oil was administered in place of the CCl4 -containing olive oil. For the administration, the piperazine derivative was employed in the form of a dispersion in aqueous MC solution (concentration: 1.0%). At 24 hours after the administration of CCl4, the rat was abdominally sectioned under ether anesthesia. From the abrominal large vein, a blood was collected. The collected blood was subjected to centrifugal separation at 3,000 r.p.m. for 10 min to obtain its plasma. […] The results are set forth in Table 4 in terms of a ratio (%) of suppression (prevention) of GOT or GPT. In Table 4, "***" means 90-100%, "**" means 60-90%, and "*" means 30-60%. The ratio of suppression is calculated according to the following equation. [formula]

Assay [2] concerns lipid peroxidation in rat hepatocyte. The assay can be described thus: Inhibitory action on lipid peroxidation (rat hepatocyte, TBA color formation, absorbance at 530 nm). The assay is classed as biochemical. To be noted: 37° C., 1 hour; for Inhibition ratio (at Final Concentration of Tested Compound) 10^-4 M: final concentration 10^-4 M, 100 µM; for Inhibition ratio (at Final Concentration of Tested Compound) 10^-5 M: final concentration 10^-5 M, 10 µM. As to the method: A hepatocyte was isolated from rat according to the method of Ui et al (Hiroshi Oka and Tadao Ui: "Isolated Cells--Experimental and Application",page 91). The determination of lipid peroxidation was performed using a died hepatocyte which had been frozen at -85° C. and stored at the temperature and which was melted when the experimental was done. […] The centrifugal tube was shaken at 37° C. for 1 hour for performing a reaction, and then placed into an ice-water bath to terminate the reaction. […] The centrifugal tube was taken out of the ice-water bath and placed in a water bath (kept at 95°-98° C.). The content of the tube was heated in the bath for 1 hour for developing color-formation. After the heating was complete, the content of the tube was cooled and subjected to centrifugal separation. The inhibitory action on lipid peroxidation of the sample was determined by measuring absorbance at 530 nm. The determined inhibitory action is expressed inhibition ratio by percent (%) calculated by the following equation: [formula] In Table 3, the number of the tested compound corresponds to the identical number set forth in Tables 1 and 2 for identifying the compounds of the invention.

[3] abbreviates: plasma GOT at 24 hours after CCl4, read-out: ratio (%) of suppression (prevention) of GOT.
[4] abbreviates: plasma GPT at 24 hours after CCl4, read-out: ratio (%) of suppression (prevention) of GPT.

On to `CSC(=S)N1CCN(Cc2ccccc2)CC1` [Compound 1], for which the inhibition in vivo at 30 mg/kg in assay [1] (setting [3]) and in assay [1] (setting [4]) was 30 to 60% throughout.
With `CSC(=S)N1CCN(Cc2ccccc2Cl)CC1` [Compound 2, Methyl 4-(2-chlorobenzyl)-1-piperazinecarbodithioate], in assay [1] (setting [3]), the inhibition in vivo at 30 mg/kg is 30 to 60%.
On to `CSC(=S)N1CCN(Cc2ccccc2C)CC1` [Compound 3, Methyl 4-(2-methylbenzyl)-1-piperazinecarbodithioate], for which the inhibition in vivo at 30 mg/kg in assay [1] (setting [3]) and in assay [1] (setting [4]) was 60 to 90% in each case.
`COc1cccc(CN2CCN(C(=S)SC)CC2)c1` [Compound 6, Methyl 4-(3-methoxybenzyl)-1-piperazinecarbodithioate]: the inhibition in vivo at 30 mg/kg in assay [1] (setting [3]) and in assay [1] (setting [4]) was 90 to 100% in each case.
For `COc1ccc(CN2CCN(C(=S)SC)CC2)cc1` [Compound 7, Methyl 4-(4-methoxybenzyl)-1-piperazinecarbodithioate], the inhibition in vivo at 30 mg/kg in assay [1] (setting [3]) lay in the range of 60 to 90%; in assay [1] (setting [4]), 30 to 60%.
On the same counts, the results for `CSC(=S)N1CCN(Cc2ccccc2SC)CC1` [Compound 9, Methyl 4-(2-methylthiobenzyl)-1-piperazinecarbodithioate] are 60 to 90% and 60 to 90%.
On the same counts, the results for `CSC(=S)N1CCN(Cc2ccccc2[N+](=O)[O-])CC1` [Compound 10, Methyl 4-(2-nitrobenzyl)-1-piperazinecarbodithioate] are 60 to 90% and 30 to 60%.
Take `CSC(=S)N1CCN(Cc2cccc(O)c2O)CC1` [Compound 15, Methyl 4-(2,3-dihydroxybenzyl)-1-piperazinecarbodithioate]: the inhibition in vivo at 30 mg/kg in assay [1] (setting [3]) and in assay [1] (setting [4]) was 90 to 100% each time.
Turning to `COc1cccc(CN2CCN(C(=S)SC)CC2)c1O` [Compound 18, Methyl 4-(2-hydroxy-3-methoxybenzyl)-1-piperazinecarbodithioate], the inhibition in vivo at 30 mg/kg in assay [1] (setting [3]) and in assay [1] (setting [4]) was 60 to 90% in each case.
With `COc1ccc(O)c(CN2CCN(C(=S)SC)CC2)c1` [Compound 20, Methyl 4-(2-hydroxy-5-methoxybenzyl)-1-piperazinecarbodithioate], the inhibition in vivo at 30 mg/kg in assay [1] (setting [3]) and in assay [1] (setting [4]) was 60 to 90% throughout.
As to `CSC(=S)N1CCN(Cc2cc(OC(C)=O)ccc2O)CC1` [Compound 21, Methyl 4-(5-acetoxy-2-hydroxybenzyl)-1-piperazinecarbodithioate], the inhibition in vivo at 30 mg/kg in assay [1] (setting [3]) and in assay [1] (setting [4]) was 60 to 90% in each case.
For `COc1ccc(CN2CCN(C(=S)SC)CC2)cc1OC` [Compound 31, Methyl 4-(3,4-dimethoxybenzyl)-1-piperazinecarbodithioate], the inhibition in vivo at 30 mg/kg in assay [1] (setting [3]) lay within 60 to 90%; in assay [1] (setting [4]), 30 to 60%.
In the case of `CSC(=S)N1CCN(Cc2ccc(OC(C)=O)c(OC(C)=O)c2OC(C)=O)CC1` [Compound 34, Methyl 4-(2,3,4-triacetoxybenzyl)-1-piperazinecarbodithioate], the inhibition in vivo at 30 mg/kg in assay [1] (setting [4]) lay in the range of 30 to 60%.
For the compound `COc1ccc(CN2CCN(C(=S)SC)CC2)c(O)c1OC` [Compound 35, Methyl 4-(3,4-dimethoxy-2-hydroxybenzyl)-1-piperazinecarbodithioate], the inhibition in vivo at 30 mg/kg in assay [1] (setting [3]) and in assay [1] (setting [4]) was 60 to 90% each time.
For `COc1cc(O)c(CN2CCN(C(=S)SC)CC2)c(OC)c1` [Compound 37, Methyl 4-[(4,6-dimethoxy-2-hydroxy)benzyl]-1-piperazinecarbodithioate], the inhibition in vivo at 30 mg/kg in assay [1] (setting [3]) and in assay [1] (setting [4]) was 60 to 90% in each case.
In the case of `CSC(=S)N1CCN(Cc2cc(O)c(O)c(O)c2)CC1` [Compound 40, Methyl 4-(3,4,5-trihydroxybenzyl)-1-piperazinecarbodithioate], in assay [2], the “Inhibition ratio (at Final Concentration of Tested Compound) 10^-4 M” value is given as 92.6%.
As for `CSC(=S)N1CCN(Cc2cc(OC(C)=O)c(OC(C)=O)c(OC(C)=O)c2)CC1` [Compound 42, Methyl 4-(3,4,5-triacetoxybenzyl)-1-piperazinecarbodithioate], in assay [2], the “Inhibition ratio (at Final Concentration of Tested Compound) 10^-4 M” value was determined as 71.6% and the “Inhibition ratio (at Final Concentration of Tested Compound) 10^-5 M” value was 71.6%.
Take `CSC(=S)N1CCN(Cc2c(C)c(O)c(C)c(C)c2O)CC1` [Compound 46, Methyl 4-[(2,5-dihydroxy-3,4,6-trimethyl)benzyl]-1-piperazinecarbodithioate]: the inhibition in vivo at 30 mg/kg in assay [1] (setting [3]) and in assay [1] (setting [4]) was 90 to 100% throughout.
With `COc1ccc(C(=O)N2CCN(C(=S)SC)CC2)c(OC)c1OC` [Compound 56, Methyl 4-(2,3,4-trimethoxybenzoyl)-1-piperazinecarbodithioate], the inhibition in vivo at 30 mg/kg in assay [1] (setting [3]) and in assay [1] (setting [4]) was 90 to 100% in each case.
Consider `COc1ccc(CCN2CCN(C(=S)SC)CC2)c(OC)c1OC` [Compound 67, Methyl 4-{2-(2,3,4-trimethoxyphenyl)ethyl}-1-piperazinecarbodithioate], for which the inhibition in vivo at 30 mg/kg in assay [1] (setting [3]) and in assay [1] (setting [4]) was 30 to 60% in each case.
On to `CSC(=S)N1CCN(CCc2ccc(O)c(O)c2O)CC1` [Compound 68, Methyl 4-{2-(2,3,4-trihydroxyphenyl)ethyl}-1-piperazinecarbodithioate], for which the inhibition in vivo at 30 mg/kg in assay [1] (setting [3]) and in assay [1] (setting [4]) was 60 to 90% each time.
Take `COc1ccc(C(=O)CN2CCN(C(=S)SC)CC2)c(OC)c1OC` [Compound 71, Methyl 4-{2-(2,3,4-trimethoxyphenyl)-2-oxo}ethyl-1-piperazinecarbodithioate]: the figures for the inhibition in vivo at 30 mg/kg in assay [1] (setting [3]) and in assay [1] (setting [4]) were 60 to 90% and 30 to 60%, respectively.
Take `CSC(=S)N1CCN(CC(=O)c2ccc(O)c(O)c2)CC1` [Compound 72, Methyl 4-{2-(3,4-dihydroxyphenyl)-2-oxo}ethyl-1-piperazinecarbodithioate]: in assay [2], the “Inhibition ratio (at Final Concentration of Tested Compound) 10^-4 M” value stood at 74.8% and the “Inhibition ratio (at Final Concentration of Tested Compound) 10^-5 M” value stood at 58.2%.
`COc1cc(CN2CCN(C(=S)S)CC2)cc(OC)c1OC` [Compound 89, Sodium 4-(3,4-5-trimethoxybenzyl)-1-piperazinecarbodithioate]: in assay [2] (60 min), the “Inhibition ratio (at Final Concentration of Tested Compound) 10^-4 M” value came out at 90.2%.
`COc1ccc(CN2CCN(C(=S)S)CC2)c(OC)c1OC` [Compound 93, 4-(2,3,4-Trimethoxybenzyl)-1-piperazinecarbodithioic acid]: the inhibition in vivo at 30 mg/kg in assay [1] (setting [3]) and in assay [1] (setting [4]) was 90 to 100% throughout.
Turning to `Oc1ccc(CN2CCN(C(=S)SCc3ccccc3)CC2)c(O)c1O` [Compound 100, Benzyl 4-(2,3,4-trihydroxybenzyl)-1-piperazinecarbodithioate], the inhibition in vivo at 30 mg/kg in assay [1] (setting [4]) was 30 to 60%.
In the case of `CSC(=S)N1CCN(Cc2c(O)c(O)cc3ccc(=O)oc23)CC1` [Compound 106, Methyl 4-(6,7-dihydroxycumarin-8-yl)methyl-1-piperazinecarbodithioate], in assay [2], the “Inhibition ratio (at Final Concentration of Tested Compound) 10^-4 M” value is recorded as 89.0% and the “Inhibition ratio (at Final Concentration of Tested Compound) 10^-5 M” value came out at 88.1%.
On to `COc1cc(CN2CCN(C(=S)S)CC2)cc(OC)c1OC` [Compound 108, 4-(3,4,5-Trimethoxybenzyl)-1-piperazinecarbodithioic acid], for which the “Inhibition ratio (at Final Concentration of Tested Compound) 10^-4 M” value in assay [2] (60 min) came to 72.6%. Moreover, the “Inhibition ratio (at Final Concentration of Tested Compound) 10^-5 M” value in assay [2] was 39.2%.
With `Oc1cc(CN2CCN(C(=S)S)CC2)cc(O)c1O` [Compound 109, 4-(3,4,5-Trihydroxybenzyl)-1-piperazinecarbodithioic acid], in assay [2], the “Inhibition ratio (at Final Concentration of Tested Compound) 10^-4 M” value turned out to be 74.9% and the “Inhibition ratio (at Final Concentration of Tested Compound) 10^-5 M” value is 24.2%.
Turning to `CSC(=S)N1CCN(CC2=CC(=O)C=CC2=O)CC1` [Compound 110, Methyl 4-(1,4-benzoquinonylmethyl)-1-piperazinecarbodithioate], the inhibition in vivo at 30 mg/kg in assay [1] (setting [3]) and in assay [1] (setting [4]) was 90 to 100% each time.
Regarding `COC1=C(OC)C(=O)C(CN2CCN(C(=S)SC)CC2)=C(C)C1=O` [Compound 118, Methyl 4-(5,6-dimethoxy-3-methyl-1,4-benzoquinonylmethyl)-1-piperazinecarbodithioate], the inhibition in vivo at 30 mg/kg in assay [1] (setting [3]) lay in the range of 60 to 90%; in assay [1] (setting [4]), 30 to 60%.
